% of control and % binding data for seven compounds are collected here from ChEMBL document CHEMBL5465560, “Selectivity Literature for EUbOPEN Chemogenomic Library” (2024).

The target in assay [1] is Serine/threonine-protein kinase MARK1 (Homo sapiens) (UniProt Q9P0L2). Put plainly: Selectivity interaction (Ambit KINOMEscan and KiNATiv profiling in Jurkat cells) EUB0000090b MARK1. The following applies: at 1 µM. It counts as cell-based.
Assay [2] concerns the target T1, Mitogen-activated protein kinase kinase kinase 19 (Homo sapiens) (UniProt Q56UN5).
T1 sequence (whole entry): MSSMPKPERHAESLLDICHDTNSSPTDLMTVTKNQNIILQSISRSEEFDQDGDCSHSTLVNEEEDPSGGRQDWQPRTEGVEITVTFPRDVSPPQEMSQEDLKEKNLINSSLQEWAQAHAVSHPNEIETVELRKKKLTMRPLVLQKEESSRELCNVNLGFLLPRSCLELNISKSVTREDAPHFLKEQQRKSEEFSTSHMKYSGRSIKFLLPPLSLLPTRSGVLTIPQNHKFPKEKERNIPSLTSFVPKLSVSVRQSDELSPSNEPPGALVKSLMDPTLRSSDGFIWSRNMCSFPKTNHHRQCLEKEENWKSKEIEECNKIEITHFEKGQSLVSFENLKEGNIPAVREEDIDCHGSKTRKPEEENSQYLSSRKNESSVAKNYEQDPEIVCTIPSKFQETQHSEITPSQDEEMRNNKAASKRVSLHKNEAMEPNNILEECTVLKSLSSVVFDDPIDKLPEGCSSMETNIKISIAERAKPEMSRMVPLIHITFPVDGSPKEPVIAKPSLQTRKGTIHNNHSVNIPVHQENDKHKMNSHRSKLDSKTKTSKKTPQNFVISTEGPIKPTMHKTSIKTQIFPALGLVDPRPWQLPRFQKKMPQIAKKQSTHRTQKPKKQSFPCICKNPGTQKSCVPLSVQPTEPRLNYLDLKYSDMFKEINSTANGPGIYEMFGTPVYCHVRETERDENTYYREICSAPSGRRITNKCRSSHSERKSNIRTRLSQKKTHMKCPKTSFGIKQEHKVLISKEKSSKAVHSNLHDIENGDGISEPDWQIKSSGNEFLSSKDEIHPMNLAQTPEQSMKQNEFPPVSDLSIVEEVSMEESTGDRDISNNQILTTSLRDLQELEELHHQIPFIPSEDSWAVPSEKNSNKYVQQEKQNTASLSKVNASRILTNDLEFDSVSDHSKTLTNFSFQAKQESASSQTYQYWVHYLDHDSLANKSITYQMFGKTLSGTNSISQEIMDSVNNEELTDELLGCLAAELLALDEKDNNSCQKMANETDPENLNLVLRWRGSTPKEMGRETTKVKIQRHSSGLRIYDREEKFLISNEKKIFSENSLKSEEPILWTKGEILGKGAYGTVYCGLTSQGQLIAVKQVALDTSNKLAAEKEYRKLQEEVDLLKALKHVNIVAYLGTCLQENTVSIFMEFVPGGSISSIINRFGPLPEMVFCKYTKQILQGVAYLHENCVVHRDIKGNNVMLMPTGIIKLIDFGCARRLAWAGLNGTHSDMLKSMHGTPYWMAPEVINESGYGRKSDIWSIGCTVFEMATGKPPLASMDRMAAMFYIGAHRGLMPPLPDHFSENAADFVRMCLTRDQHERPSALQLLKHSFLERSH
In words: Selectivity interaction (KinomeScan (DiscoverX)) EUB0000607a MAP3K19. The following applies: at 10 µM.

Assay [3] deals with T2, Mitogen-activated protein kinase kinase kinase 12 (Homo sapiens) (UniProt Q12852).
T2 sequence (whole entry): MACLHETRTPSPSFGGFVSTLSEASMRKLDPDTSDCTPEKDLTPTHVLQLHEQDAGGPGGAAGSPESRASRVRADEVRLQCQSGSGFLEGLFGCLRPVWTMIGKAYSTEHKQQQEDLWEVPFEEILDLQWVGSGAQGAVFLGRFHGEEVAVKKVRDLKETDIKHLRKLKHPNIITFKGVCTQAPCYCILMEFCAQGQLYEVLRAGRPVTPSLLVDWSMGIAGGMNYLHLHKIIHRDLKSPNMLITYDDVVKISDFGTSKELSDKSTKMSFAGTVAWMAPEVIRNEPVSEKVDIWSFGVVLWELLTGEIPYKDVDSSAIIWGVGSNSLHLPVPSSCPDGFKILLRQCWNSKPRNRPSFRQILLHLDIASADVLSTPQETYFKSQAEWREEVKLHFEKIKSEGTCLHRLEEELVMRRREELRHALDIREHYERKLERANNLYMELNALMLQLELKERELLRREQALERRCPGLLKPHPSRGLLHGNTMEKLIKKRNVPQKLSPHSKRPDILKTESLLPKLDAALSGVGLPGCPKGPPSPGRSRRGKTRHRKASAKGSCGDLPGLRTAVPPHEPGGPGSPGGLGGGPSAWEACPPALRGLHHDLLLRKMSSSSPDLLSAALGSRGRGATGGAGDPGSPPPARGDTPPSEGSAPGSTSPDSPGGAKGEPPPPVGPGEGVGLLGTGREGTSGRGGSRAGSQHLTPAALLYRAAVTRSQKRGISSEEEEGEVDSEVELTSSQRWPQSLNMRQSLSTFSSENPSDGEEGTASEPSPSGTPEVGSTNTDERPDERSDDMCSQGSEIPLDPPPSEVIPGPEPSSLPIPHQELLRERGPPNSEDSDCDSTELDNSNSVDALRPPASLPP
In words: Selectivity interaction (KinomeScan (DiscoverX)) EUB0000607a MAP3K12. The note with it: at 10 µM.

Assay [4] has as its target Serine/threonine-protein kinase pim-3 (Homo sapiens) (UniProt Q86V86). The note with it: at 10 µM.
Assay [5] concerns the target Ribosomal protein S6 kinase alpha-4 (Homo sapiens) (UniProt O75676). Put plainly: Selectivity interaction (KinomeScan (DiscoverX)) EUB0000666a RPS6KA4. The note with it: at 10 µM.
Assay [6] has as its target Ribosomal protein S6 kinase alpha-6 (Homo sapiens, UniProt Q9UK32). Put plainly: Selectivity interaction (KinomeScan (DiscoverX)) EUB0000229b RPS6KA6. The note with it: at 10 µM.
Assay [7] deals with MAP kinase-activated protein kinase 2 (Homo sapiens, UniProt P49137). The note with it: at 10 µM.
The target in assay [8] is T1, Mitogen-activated protein kinase kinase kinase 19 (Homo sapiens). Put plainly: Selectivity interaction (KinomeScan (DiscoverX)) EUB0000092b MAP3K19. The following applies: at 10 µM.

Chain of Ribosomal protein S6 kinase alpha-6 (Q9UK32 whole entry): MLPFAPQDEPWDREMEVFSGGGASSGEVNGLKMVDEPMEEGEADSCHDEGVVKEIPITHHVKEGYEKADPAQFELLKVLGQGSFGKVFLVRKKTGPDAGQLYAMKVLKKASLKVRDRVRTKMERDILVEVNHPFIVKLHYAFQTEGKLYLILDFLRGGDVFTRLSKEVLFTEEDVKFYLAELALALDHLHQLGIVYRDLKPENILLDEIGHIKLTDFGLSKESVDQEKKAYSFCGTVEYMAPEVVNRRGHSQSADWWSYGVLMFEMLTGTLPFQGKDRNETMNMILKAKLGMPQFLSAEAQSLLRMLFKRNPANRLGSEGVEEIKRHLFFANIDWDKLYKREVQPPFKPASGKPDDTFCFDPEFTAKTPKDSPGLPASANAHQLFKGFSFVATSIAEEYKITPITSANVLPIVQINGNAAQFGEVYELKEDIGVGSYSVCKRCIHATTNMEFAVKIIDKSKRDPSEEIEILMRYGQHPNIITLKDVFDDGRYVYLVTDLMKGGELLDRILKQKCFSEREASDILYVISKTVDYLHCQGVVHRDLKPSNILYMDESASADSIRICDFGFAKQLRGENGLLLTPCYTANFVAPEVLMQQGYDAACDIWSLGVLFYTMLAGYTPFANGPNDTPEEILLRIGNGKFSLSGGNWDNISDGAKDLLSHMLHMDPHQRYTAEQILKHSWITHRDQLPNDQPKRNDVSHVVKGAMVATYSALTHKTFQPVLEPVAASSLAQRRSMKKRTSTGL
Chain of Ribosomal protein S6 kinase alpha-4 (Homo sapiens) (O75676 whole entry, looked up): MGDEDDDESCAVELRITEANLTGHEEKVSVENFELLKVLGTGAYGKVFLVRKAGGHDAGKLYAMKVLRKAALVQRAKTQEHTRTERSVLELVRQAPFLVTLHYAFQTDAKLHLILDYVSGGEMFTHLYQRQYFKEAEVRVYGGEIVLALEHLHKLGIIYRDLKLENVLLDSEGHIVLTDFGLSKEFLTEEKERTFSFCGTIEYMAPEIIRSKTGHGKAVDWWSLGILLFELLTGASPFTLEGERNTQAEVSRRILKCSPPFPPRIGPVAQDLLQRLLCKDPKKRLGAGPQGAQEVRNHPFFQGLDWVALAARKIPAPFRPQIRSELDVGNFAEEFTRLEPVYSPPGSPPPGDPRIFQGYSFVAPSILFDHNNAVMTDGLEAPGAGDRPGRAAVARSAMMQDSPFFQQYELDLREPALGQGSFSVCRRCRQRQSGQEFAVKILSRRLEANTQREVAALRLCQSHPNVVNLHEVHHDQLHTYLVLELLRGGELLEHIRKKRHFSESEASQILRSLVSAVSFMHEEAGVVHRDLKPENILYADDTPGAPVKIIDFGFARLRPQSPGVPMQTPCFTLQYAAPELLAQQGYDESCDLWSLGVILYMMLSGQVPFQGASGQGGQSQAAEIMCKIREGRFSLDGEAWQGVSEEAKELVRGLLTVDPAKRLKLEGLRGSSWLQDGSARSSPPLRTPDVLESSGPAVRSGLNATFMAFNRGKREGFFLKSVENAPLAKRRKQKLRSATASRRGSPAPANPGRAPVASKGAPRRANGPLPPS
Chain of MAP kinase-activated protein kinase 2 (P49137 whole entry, looked up): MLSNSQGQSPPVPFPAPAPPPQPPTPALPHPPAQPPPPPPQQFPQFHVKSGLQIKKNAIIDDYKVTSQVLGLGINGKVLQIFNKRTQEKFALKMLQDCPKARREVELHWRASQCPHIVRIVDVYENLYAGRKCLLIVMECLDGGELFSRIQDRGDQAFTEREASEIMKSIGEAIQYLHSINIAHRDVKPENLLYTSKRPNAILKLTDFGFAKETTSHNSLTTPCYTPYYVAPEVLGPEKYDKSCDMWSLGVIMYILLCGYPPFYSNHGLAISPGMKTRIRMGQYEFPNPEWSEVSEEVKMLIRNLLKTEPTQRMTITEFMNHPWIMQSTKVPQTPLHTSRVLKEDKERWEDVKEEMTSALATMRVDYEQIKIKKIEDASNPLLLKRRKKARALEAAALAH
Chain of Serine/threonine-protein kinase MARK1 (Homo sapiens) (Q9P0L2 whole entry, looked up): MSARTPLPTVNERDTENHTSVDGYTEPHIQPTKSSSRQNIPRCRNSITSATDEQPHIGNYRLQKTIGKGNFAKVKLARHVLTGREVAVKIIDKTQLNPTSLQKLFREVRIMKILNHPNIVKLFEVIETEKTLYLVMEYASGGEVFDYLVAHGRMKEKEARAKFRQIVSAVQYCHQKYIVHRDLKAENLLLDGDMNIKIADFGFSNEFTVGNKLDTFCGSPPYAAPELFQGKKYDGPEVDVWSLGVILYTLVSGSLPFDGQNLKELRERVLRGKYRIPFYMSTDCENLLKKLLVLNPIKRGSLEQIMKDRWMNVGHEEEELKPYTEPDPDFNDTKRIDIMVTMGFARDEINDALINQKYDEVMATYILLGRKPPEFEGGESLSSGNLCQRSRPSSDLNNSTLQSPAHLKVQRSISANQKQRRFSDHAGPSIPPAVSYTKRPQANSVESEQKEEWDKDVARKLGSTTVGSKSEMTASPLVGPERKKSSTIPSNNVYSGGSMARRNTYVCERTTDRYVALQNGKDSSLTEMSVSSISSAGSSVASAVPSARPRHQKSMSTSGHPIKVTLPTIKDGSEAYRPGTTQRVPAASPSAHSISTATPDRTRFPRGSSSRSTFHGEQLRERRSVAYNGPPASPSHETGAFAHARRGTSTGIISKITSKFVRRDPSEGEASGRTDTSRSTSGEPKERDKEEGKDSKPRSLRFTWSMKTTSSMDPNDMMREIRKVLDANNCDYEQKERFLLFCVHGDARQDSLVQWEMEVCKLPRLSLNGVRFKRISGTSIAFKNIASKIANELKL

Take `CN(C)C/C=C/C(=O)Nc1ccc(C(=O)N2CCCC(Nc3ncc(Cl)c(-c4c[nH]c5ccccc45)n3)C2)cc1` (stereo not drawn): the % of control in assay [1] was 100%.

Regarding `CNC(=O)Nc1ccc(-c2nc(N3CC4CCC(C3)O4)c3cnn(C4CCC5(CC4)OCCO5)c3n2)cc1`, the % of control in assay [2] turned out to be 100%; in assay [3], 93%.

With `Cc1cc([C@@H](C)Nc2ccccc2C(=O)O)c2nc(N3CCOCC3)cc(=O)n2c1` [AZD-6482], the % of control in assay [4] is 100%.

On to `O=C(NOC[C@H](O)CO)c1ccc(F)c(F)c1Nc1ccc(I)cc1F`, for which the % of control in assay [5] was determined as 100%.

In turn, `COc1cc(N(C)c2ccnc3ccc(C(F)(F)F)cc23)cc(OC)c1OC` came in with a % binding in assay [6] of 81%.

Take `CCN(CC)CCCCNc1ncc2cc(-c3cc(OC)cc(OC)c3)c(NC(=O)NC(C)(C)C)nc2n1`: the % of control in assay [7] is 100%.

On to `CCC(=O)N1CCN(c2ccc(-n3c(=O)ccc4cnc5ccc(-c6cnc7ccccc7c6)cc5c43)cc2C(F)(F)F)CC1`, for which the % of control in assay [8] worked out at 38%.
